Converted amounts (≈) assume the structure as drawn. “Also recorded” adds a separate entry of the source. Where two headings read alike, the source gives them in different places.
Legend:
[1] = system: MCF-7 (ER+) breast tumor cells; assay: MTT based cell proliferation assay, MCF-7; settings: Homo sapiens, MCF7, read-out: Anti-tumor growth potential (IC50) in MCF-7
Experimental: MTT [3-(4,5-dimethylthiazol-2-yl)-2,5-diphenyltetrazolium bromide] incorporation based cell proliferation assay was performed using standard procedure. The cytotoxic efficacies of the various selenopheno triazene compounds (compounds 1 to 16) was evaluated in both human malignant melanoma A375 cells and mouse malignant melanoma B16 F0 cells by MTT cell proliferation assay kit (Roche Applied Sciences, Germany). The assay was carried out according to the instruction provided by the vendor. Briefly, equal numbers of cells was plated in 96-well flat-bottomed plates and were incubated with both DTIC and the test compounds (compounds 1 to 16) at various concentrations for a period of three days. Vehicle control culture wells received only a maximum of 0.5% DMSO. Thereafter, 0.5 mg/ml of MTT reagent was added to each well and the microplate was incubated further for 4 h at 37° C. in presence of 5% CO2. […] After complete solubilization of the formazan crystals, the absorbance was read at 540 nm in a microplate reader (BioRad, USA). […]
Anti-tumor growth potential of Compound 1 and DTIC were evaluated in various human tumor cells such as A549 lung tumor cells, DU145 prostate tumor cells, HT29 colon cancer cells and MCF-7 (ER^+) breast tumor cells in vitro, by using MTT based cell proliferation assay as described earlier (example 17). […]

[2] = system: Human umbilical vein endothelial cells (HUVEC); assay: Endothelial cell migration assay; assay type: cell-based; settings: 5 and 10 μg/ml, 18 h
Experimental: The methodology of endothelial cell migration assay was essentially the same as described earlier with some modifications (Sengupta, K et al., Mol. Cancer. Res. 2004; 2: 150-158.). FALCON™ Cell Culture inserts (Becton Dickinson, USA) with 8 μm-pores in their PET membrane was coated with 0.1 mg/ml of collagen. Human umbilical vein endothelial cells (HUVEC) were added to the cell culture inserts (Becton Dickinson) at a density of 5×10^4 cells/insert. Cells were allowed to migrate through the insert for 18 h in presence of different concentrations of either DTIC or Compound 1. The control culture containing migration assembly received only 0.1% DMSO. […] The membranes of the inserts were then mounted on glass slides. Cells migrated through the membrane pores were counted in 20 random fields under Nikon Eclipse TS 100 microscope at 20× objective.

[3] = system: A375 human melanoma xenograft; assay: A375 human melanoma xenograft model of nu/nu BALB/c nude mice; assay type: in vivo, mouse; settings: 25 mg/kg daily intra-peritoneal, twenty one days, tumor volume, p=0.04322
Experimental: To further substantiate the anti-melanoma efficacy of the Compound 1, this compound was tested for its anti-melanoma efficacy in A375 human melanoma xenograft model of nu/nu BALB/c nude mice. The animals of 6-8 weeks age (body weight 18-22 g) were used in this study. Animals study protocols were approved by Institutional Ethics Committee (IAEC). All the studies were performed in compliance with the Committee for the Purpose of Control and Supervision of Experiments on Animals (CPCSEA) guidelines and OECD guidelines. Animals were allowed free access to sterile standard rodent diet and provided with charcoal filtered and UV exposed water ad libitum. The animals were housed in a sterile room and were located individually in ventilated cages. The room was maintained at a controlled temperature (24-26° C.), humidity (45-70%), and 12 h/12 h of light/dark cycle.
To induce the melanoma tumor, sub-confluent A375 human melanoma cells were harvested by brief trypsinization and 1×10^6 cells were injected subcutaneously in 0.2 ml phosphate-buffered saline. Drug treatment was started after development of palpable tumors (6-7 days after implantation of the cells). At this point the tumor take rate was 100%. […] After twenty one days of treatment, the animals were sacrificed by CO2 inhalation and tumors growth was measured by the following formula (Friedman H S et al., Mol Cancer Ther 2002; 1:943-948). […]

[4] = system: HS.531.sk normal human skin epithelial cells; assay type: cell-based; settings: 3 days
Experimental: MTT [3-(4,5-dimethylthiazol-2-yl)-2,5-diphenyltetrazolium bromide] incorporation based cell proliferation assay was performed using standard procedure. The cytotoxic efficacies of the various selenopheno triazene compounds (compounds 1 to 16) was evaluated in both human malignant melanoma A375 cells and mouse malignant melanoma B16 F0 cells by MTT cell proliferation assay kit (Roche Applied Sciences, Germany). The assay was carried out according to the instruction provided by the vendor. Briefly, equal numbers of cells was plated in 96-well flat-bottomed plates and were incubated with both DTIC and the test compounds (compounds 1 to 16) at various concentrations for a period of three days. Vehicle control culture wells received only a maximum of 0.5% DMSO. Thereafter, 0.5 mg/ml of MTT reagent was added to each well and the microplate was incubated further for 4 h at 37° C. in presence of 5% CO2. Finally, the cells were solubilized by adding solubilizing solution and allowed to incubate at 37° C. overnight. After complete solubilization of the formazan crystals, the absorbance was read at 540 nm in a microplate reader (BioRad, USA). The results (mean OD±SD) obtained from quadruplicate wells were used in calculation to determine the inhibition of cell proliferation (50% of inhibitory concentration, IC50) of the test compounds (compounds 1 to 16) (Table 1).
Next, to check whether the Compound 1 can selectively kill the melanoma cells without or minimally affecting the normal cells, we assessed the comparative efficacy of the Compound 1 and DTIC on cell growth inhibition of HS.531.sk normal human skin epithelial cells. The growth inhibitory effect of the test compound and DTIC was assessed by MTT proliferation assay as described earlier (Example 17). The comparative efficacies of Compound 1 and DTIC in inhibiting the normal skin epithelial cell growth are depicted in FIG. 2.

[5] = system: Human umbilical vein endothelial cells (HUVEC); assay: In vitro endothelial capillary tube formation assay; assay type: cell-based; settings: 16 h
Experimental: In vitro capillary formation assay was performed with Human umbilical vein endothelial cells (HUVEC), cultured on 10 mg/ml basement membrane extract (BME-Cultrex®, R&D Systems, USA) bed. The protocol of in vitro endothelial tube formation assay was the same as described earlier with some modifications (Diana G et al., J. Cell Biol. 1995; Volume 130: 207-215.). Briefly, four hundred microliters of Cultrex was coated at 4° C. in each well of 24-well culture plate and allowed to gel at 37° C. for 1 h. HUVECs were plated at a density of 7.5×10^4 cells per well with 400 μl of DMEM supplemented with 10% fetal bovine serum and 4.5 g/l D-glucose. The cells were then treated with either DTIC or Compound 1 at desired concentration as indicated for 16 hours. Vehicle control cultures received only 0.1% DMSO. Pictures were taken under a Nikon Eclipse TS 100 microscope equipped with a Nikon Coolpix camera.

human plasma protein = settings: at therapeutic concentrations; cited from earlier work
malignant melanoma = settings: single-agent, malignant melanoma patients; cited from earlier work
[6] = cited from earlier work
[7] = patient with renal and hepatic dysfunctions

With `Cc1[se]c(C(N)=O)cc1/N=N/N(C)C` [Compound 1, 4-[(dimethylamino)diazenyl]-5-methylselenophene-2-carboxamide] the IC50 [1] was 7.03 µg/mL (≈ 27.1 µM), the “Migration of human endothelial cells (HUVEC)” value [2] was “significant inhibition of migration; also recorded: inhibited endothelial cell migration” and the “Inhibition of melanoma tumor growth, A375 human melanoma xenograft model of nude mice” value [3] was 46.52%. The melting point was 170 to 172 °C, the “Growth inhibition of HS.531.sk normal human skin epithelial cells” value (from here on “Growth inhibition”) ([4]; 25 μg/ml) was 2.33% and the “Growth inhibition” value ([4]; 50 μg/ml) was 23.83%. For the same molecule, the “Endothelial capillary-like tube formation” value ([5]; 5 and 10 μg/ml) was “inhibition of capillary formation in a dose dependent manner; also recorded: exhibited anti-angiogenic properties”.
In the case of `CN(C)N=Nc1[nH]cnc1C(N)=O` [DTIC, 5-(3,3-dimethyl-1-trizeno)-imidazole-4-carboxamide, reference compound], the “Binding to human plasma protein” value (human plasma protein) is given as “not appreciably bound”, the IC50 [1] is given as 85.1 µg/mL (≈ 467 µM) and the Complete responses (malignant melanoma) is given as “less than 5 % of patients”. For the same molecule, the “Growth inhibition” value ([4]; 25 μg/ml) was 34.58%, the “Growth inhibition” value ([4]; 50 μg/ml) was 43.46% and the “Initial half life of disappearance from plasma” value ([6]; biphasic disappearance) was 19 min. The “Average cumulative excretion of unchanged drug in the urine” value ([6]; in six hours) was 40 % of the injected dose, the “Initial half life of disappearance from plasma” value [6, 7] was 55 min and the “Terminal half life of disappearance from plasma” value [6, 7] was 432 min. For the same molecule, the “Endothelial capillary-like tube formation” value ([5]; 100 μg/ml) was “promoted capillary formation; also recorded: could not inhibit the endothelial capillary formation”.
